Source: PMC5509375, “Oxidative stress induced in E. coli by the human antimicrobial peptide LL-37” (PLoS Pathogens, 2017)
In brackets after ≈: the same amount, converted by molar mass. Read-outs that look alike come from different tables or passages of the source. Ends that are not written are not given here.

Key:
E. coli MG1655 [1] = assay: MIC assay, anaerobic fermentation (oxygen scavenged with PCA/PCD); type: cell-based; details: E. coli MG1655, EZRDM, 30°C, 6 hr, PCA 10 mM / PCD 100 nM
Method: (§1) We have measured MICs in aerobic and anaerobic fermentation conditions using a series of two-fold dilutions for the four natural AMPs in the same rich, chemically defined EZRDM medium at 30°C (Table 1). The MIC in anaerobic fermentation conditions is 4-fold higher for LL-37 and 8-fold higher for melittin. […] For cecropin A and for indolicidin, the MIC is the same in aerobic and fermentation conditions. Evidently the activity against E. coli of some, but not all, natural AMPs is enhanced by the presence of oxygen. For LL-37, the primary focus of this study, we also measured the MIC in conditions enabling anaerobic respiration (no oxygen, but supplemented with 10 mM KNO3; Table 2).
Anaerobic MIC values (Table 1) were measured on a 96-well plate that was sealed with plastic wrap. Cells were incubated in EZRDM containing protocatechuic acid (PCA) at 10 mM and protocatechuate 3,4-dioxygenase (PCD) at 100 nM to scavenge oxygen. The plate was incubated at 30°C for 6 hr, followed by OD measurements.

E. coli MG1655 [2] = assay: MIC assay, broth microdilution, aerobic growth; type: cell-based; details: E. coli MG1655, EZRDM, 30°C, 6 hr, two-fold serial dilutions, reproducible to the same factor of two
Method: as §1
The aerobic MIC values for the various AMPs (Table 1) were determined using the broth microdilution method as previously described. Two-fold serial dilutions of LL-37 in 1× EZRDM were performed in separate rows of a polystyrene 96-well plate, with each plate containing an inoculum of E. coli MG1655. The inoculum was a 1:20 dilution from a bulk culture at midlog phase (OD600 = 0.5) grown at 30°C. The plate was incubated at 30°C and shaken at 200 rpm in a Lab-Line Orbital Environ Shaker (model 3527) for 6 hr. The MIC value was taken as the lowest concentration for which no growth was discernible (<0.05 OD) after 6 hr.

E. coli MG1655 [3] = system: E. coli MG1655; parameters: method as in 2 sources, one per row (each row's own in cited_ref): ref 20 = [20]; PMID 25561551; doi:10.1073/pnas.1417703112; 20 Choi H , Yang Z , Weisshaar JC . Single-cell, real-time detection of oxidative stress induced in Escherichia coli by the antimicrobial peptide CM15 . Proc Natl Acad Sci U S A . 2015; 112 ( 3 ): E3 ||| ref 22 = [22]; PMID 26493221; doi:10.1021/acschembio.5b00547; 22 Choi H , Chakraborty S , Liu R , Gellman SH , Weisshaar JC . Single-Cell, Time-Resolved Antimicrobial Effects of a Highly Cationic, Random Nylon-3 Copolymer on Live Escherichia coli . ACS Chem Biol; details: cited from earlier work
E. coli MG1655 [4] = details: cited from earlier work
Method: Table 1 Antimicrobial peptides and their MICs for E. coli MG1655 in aerobic growth vs anaerobic fermentation in EZRDM at 30°C. | column: MIC (μM) ^1 / Aerobic || Additional evidence that the onset of strong CellROX* fluorescence coincides with entry of LL-37 into the periplasm comes from two-color imaging experiments using CellROX Green and a red fluorescent variant of the peptide, Rh-LL-37. […] Under aerobic growth conditions, at t = 0 we flowed 25 μM CellROX Green plus 8 μM Rh-LL-37 across plated E. coli cells. As before, wea ... || To test for the importance of LL-37 stereochemistry on the magnitude of oxidative effects, we repeated the CellROX* assay in aerobic conditions using 4 μM of the all-D stereoisomer of LL-37. […] In addition, our earlier work found the same MIC for D- and L-LL-37 [19].

MG1655 E. coli = type: cell-based; details: 8 μM Rh-LL-37 + 25 μM CellROX Green, aerobic, 59 cells from three repeats

CC[C@H](C)[C@H](N)C(=O)N[C@@H](CC(C)C)C(=O)N1CCC[C@H]1C(=O)N[C@@H](Cc1c[nH]c2ccccc12)C(=O)N[C@@H](CCCCN)C(=O)N[C@@H](Cc1c[nH]c2ccccc12)C(=O)N1CCC[C@H]1C(=O)N[C@@H](Cc1c[nH]c2ccccc12)C(=O)N[C@@H](Cc1c[nH]c2ccccc12)C(=O)N1CCC[C@H]1C(=O)N[C@@H](Cc1c[nH]c2ccccc12)C(=O)N[C@@H](CCCNC(=N)N)C(=O)N[C@@H](CCCNC(=N)N)C(N)=O [Indolicidin]
MIC (μM) Fermentation (E. coli MG1655 [1]): 32 µM (≈ 61 µg/mL)
MIC (μM) Aerobic (E. coli MG1655 [2]): 32 µM (≈ 61 µg/mL)

CM15
MIC (μM) Fermentation (E. coli MG1655 [3]; E. coli MG1655, EZRDM, 30°C, anaerobic fermentation, CM15 from earlier study): 100 µM
MIC in anaerobic (fermentation) relative to aerobic growth (E. coli MG1655 [3]; E. coli, fold higher in anaerobic): 20 fold
MIC (μM) Aerobic (E. coli MG1655 [4]; E. coli MG1655, EZRDM, 30°C, aerobic, CM15 from earlier study): 5 µM

KWKLFKKIEKVGQNIRDGIIKAGPAVAVVGQATQIAK-NH2 [Cecropin A]
MIC (μM) Fermentation (E. coli MG1655 [1]): 0.9 µM
MIC (μM) Aerobic (E. coli MG1655 [2]): 0.9 µM

Rhodamine B-LL-37 [Rh-LL-37]
MIC compared with unlabeled L-LL-37 (E. coli MG1655 [4]; MG1655 E. coli): the same MIC
Timing of CellROX* fluorescence relative to periplasmic Rh-LL-37 fluorescence (MG1655 E. coli): rise on the same time scale
